Values quoted from earlier work, collected in patent US20080008798A1, “Salts of astaxathin esters” (priority 2002, published 2008).

What was measured:
[1] = per week; storage of the manufactured feed under ambient conditions
[2] = system: flesh pigmentation; conditions: feeding non-formulated astaxanthin

contained pigment lost through degradation during storage [1]: about 2%
SMILES: CC1=C(/C=C/C(C)=C/C=C/C(C)=C/C=C/C=C(C)/C=C/C=C(C)/C=C/C2=C(C)C(=O)[C@@H](O)CC2(C)C)C(C)(C)C[C@H](O)C1=O [astaxanthin]
pigmentation effect [2]: almost no pigmentation effect
